Results from paper PMC8619046, “ABCB1 and ABCG2 Control Brain Accumulation and Intestinal Disposition of the Novel ROS1/TRK/ALK Inhibitor Repotrectinib, While OATP1A/1B, ABCG2, and CYP3A Limit Its Oral Availability” (Pharmaceutics, 2021).
Where two headings read alike, the source gives them in different places.

Key:
Assay type in all cases: in vitro ADME
endogenous canine ABCB1 [1] = biological target: T1, endogenous canine ABCB1 (Canis lupus familiaris, UniProt C0KKU9); experiment: Transepithelial transport, parental MDCK-II cells; details: dog, pH 7.4, repotrectinib 5 µM, no inhibitor, read-out: efflux transport ratio r
T1 construct: the low-level endogenous canine ABCB1 present in MDCK-II cells; host or cells: parental MDCK-II cells (canine kidney)
Text: (§1) Polarized Madin-Darby Canine Kidney (MDCK-II) cells (ECACC 00062107) stably transduced with either human (h) ABCB1, hABCG2 or mouse (m) Abcg2 cDNA were generated in our institute between 1995–2005. The proper identity and functionality, such as highly characteristic growth and drug transporter properties, including inhibitor sensitivity, were regularly checked in these epithelial cells. Mycoplasma routinely tested negative in these cells. The passage number was 10–15 when used in the transport experiments.
(§2) Transepithelial transport experiments were performed as previously described with 12-well plates (Transwell 3414, Corning Inc., Kennebunk, ME, USA) containing microporous polycarbonate membrane filters (3.0 µm pore size, 12 mm diameter). […]
(§3) After pre-incubation with 5 µM zosuquidar (ABCB1 inhibitor) and/or 5 µM Ko143 (ABCG2/Abcg2 inhibitor) in both compartments (when appropriate) for 1 h, the transport phase was initiated (t = 0) by replacing the medium in apical and basolateral compartments with fresh DMEM with 10% FBS and the appropriate inhibitor(s), and repotrectinib at 5 µM in the donor compartment. […] The active transport ratio r, calculated by dividing the amount of apically directed drug transport by basolaterally directed drug translocation after 8 h, was used to assess active transport of repotrectinib.

endogenous canine ABCB1 [2] = system: T2, endogenous canine ABCB1; experiment: Transepithelial transport, parental MDCK-II cells; details: dog, pH 7.4, with zosuquidar 5 µM, 5 µM, + zosuquidar 5 µM, read-out: efflux transport ratio r
T2 construct: the low-level endogenous canine ABCB1 present in MDCK-II cells; host or cells: parental MDCK-II cells (canine kidney)
Text: as §1, §2, §3

mouse Abcg2 = system: T3, mouse Abcg2; experiment: Transepithelial transport, MDCK-II cells transduced with mAbcg2; details: MDCK-II mAbcg2, 5 µM, read-out: efflux transport ratio r
T3 construct: expressed in transfected cells; host or cells: MDCK-II cells stably transduced with mAbcg2 cDNA (made in the authors' institute)
Text: as §1, §2, §3

T1 sequence (C0KKU9 1-1281): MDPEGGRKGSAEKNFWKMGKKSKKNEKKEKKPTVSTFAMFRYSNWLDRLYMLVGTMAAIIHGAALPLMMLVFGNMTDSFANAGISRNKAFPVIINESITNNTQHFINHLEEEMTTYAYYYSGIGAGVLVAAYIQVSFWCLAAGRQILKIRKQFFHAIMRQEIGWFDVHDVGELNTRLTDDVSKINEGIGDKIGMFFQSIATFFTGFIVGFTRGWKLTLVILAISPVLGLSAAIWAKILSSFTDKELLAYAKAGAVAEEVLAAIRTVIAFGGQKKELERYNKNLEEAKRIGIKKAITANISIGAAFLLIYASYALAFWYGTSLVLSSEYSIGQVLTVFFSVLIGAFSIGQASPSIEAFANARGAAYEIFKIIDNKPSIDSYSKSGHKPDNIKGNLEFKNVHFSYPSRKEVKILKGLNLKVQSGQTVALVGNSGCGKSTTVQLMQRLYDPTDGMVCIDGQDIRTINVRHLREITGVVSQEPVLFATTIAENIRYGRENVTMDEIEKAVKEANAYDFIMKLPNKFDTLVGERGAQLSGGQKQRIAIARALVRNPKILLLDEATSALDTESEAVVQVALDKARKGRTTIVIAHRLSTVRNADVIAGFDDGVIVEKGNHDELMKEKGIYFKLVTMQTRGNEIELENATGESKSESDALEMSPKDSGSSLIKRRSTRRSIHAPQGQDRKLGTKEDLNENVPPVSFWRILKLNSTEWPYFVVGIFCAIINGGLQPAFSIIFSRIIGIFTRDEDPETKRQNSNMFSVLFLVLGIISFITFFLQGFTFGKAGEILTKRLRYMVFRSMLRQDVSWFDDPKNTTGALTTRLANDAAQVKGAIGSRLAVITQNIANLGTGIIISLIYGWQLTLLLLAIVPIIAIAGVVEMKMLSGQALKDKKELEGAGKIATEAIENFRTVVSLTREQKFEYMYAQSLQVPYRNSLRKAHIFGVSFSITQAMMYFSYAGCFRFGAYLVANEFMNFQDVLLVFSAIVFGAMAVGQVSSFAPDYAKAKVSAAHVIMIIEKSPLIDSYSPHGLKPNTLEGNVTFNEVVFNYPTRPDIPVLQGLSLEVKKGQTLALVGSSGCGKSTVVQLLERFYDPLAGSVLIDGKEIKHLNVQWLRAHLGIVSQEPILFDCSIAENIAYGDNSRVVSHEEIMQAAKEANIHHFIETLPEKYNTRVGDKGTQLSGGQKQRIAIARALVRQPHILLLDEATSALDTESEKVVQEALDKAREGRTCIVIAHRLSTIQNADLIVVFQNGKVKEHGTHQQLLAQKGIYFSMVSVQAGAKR

C[C@H]1CNC(=O)c2cnn3ccc(nc23)N[C@H](C)c2cc(F)ccc2O1 [repotrectinib]
efflux ratio at 8 h, 5 µM (endogenous canine ABCB1 [1]): 2.5
efflux ratio at 8 h, 5 µM (endogenous canine ABCB1 [2]): 1
efflux ratio at 8 h, 5 µM (mouse Abcg2; pH 7.4, with zosuquidar 5 µM + Ko143 5 µM, + zosuquidar 5 µM + Ko143 5 µM): 1.1
efflux ratio at 8 h, 5 µM (mouse Abcg2; pH 7.4, with zosuquidar 5 µM, + zosuquidar 5 µM): 40
